What was measured:
RFPEC = experiment: PEG-AuNP uptake by RFPEC under glycocalyx conditions (confocal red fluorescence); type: cell-based, rat; conditions: repaired glycocalyx (Hep III, then 59 μg/mL exogenous HS); 550 μg/mL PEG-AuNP, 16 hours
Experimental: (§1) RFPEC Culture. A rat fat pad endothelial cell (RFPEC) line^37 was utilized, originally isolated from rat epididymal fat pads by Dr. Mia Thi of Albert Einstein College of Medicine (Bronx, N.Y., USA). RFPECs were selected for their ability to naturally express a robust glycocalyx.^38 These ECs were cultured in tissue culture flasks at 37° C. and 5% CO2 in a humidified environment with Dulbecco's Modified Eagle's Medium (DMEM) supplemented with 10% fetal bovine serum (FBS) and 1% penicillin-streptomycin, all purchased from Thermo Fisher Scientific (Waltham, Mass., USA). For 3-(4,5-dimethylthiazol-2-yl)-5-(3-carboxymethoxyphenyl)-2-(4-sulfophenyl)-2H-tetrazolium (MTS) assays (Sigma-Aldrich Co., St Louis, Mo., USA), RFPECs were seeded at 3.7×10^4 cells/cm^2 in tissue culture-treated, 96-well plates (Falcon; Thermo Fisher Scientific) and imaged on a SpectraMax M3 plate reader to show cell viability and metabolic activity. […]
PEG-AuNP. […] After dialysis in 12-14 kDa molecular weight cutoff tubes (EMD Millipore, Billerica, Mass., USA) and lyophilization, an Alexa Fluor 647 N-hydroxysuccinimide (NHS) ester (succinimidyl ester) was conjugated onto the NH2 functional groups on the AuNP to allow for visualization under fluorescence. […] PEG-AuNP fluorescence activity was confirmed using a Jobin Yvon Fluoromax 4. […]

[1] = tested on: RFPEC glycocalyx (adsorbed BSA); experiment: Whole glycocalyx thickness and coverage by BSA immunofluorescence (Example 2); type: cell-based, rat; conditions: Hep III 2 h then 16 h, with or without 59 μg/mL HS
Experimental: as §1, with “activity. For confocal imaging, RFPECs were seeded onto 12-mm diameter round glass cover slips (Thermo Fisher Scientific) at 1×10^4 cells/cm^2 in tissue culture-treated six-well plates (Falcon; Thermo Fisher Scientific).” for “activity.”
RFPEC glycocalyx treatments. […] The red fluorescence detected from conjugated Alexa Fluor 647 was attributed to AuNP within the RFPEC monolayers (details are given in the “Confocal imaging and analysis” section). […]

Substance: heparan sulfate [HS]
- PEG-AuNP uptake relative to cells with healthy, intact glycocalyx (RFPEC): 1.3±0.3 fold
- whole glycocalyx (BSA) coverage of the EC layer [1]: 75.2%+4.0%
- whole glycocalyx (BSA) thickness ([1]; mean±SEM): 2.41±0.3 μm
